Experimental data as given in US11021441B2, “High solubility thioether quinones” (Wisconsin Alumni Research Foundation, priority 2017, dated 2021).

Assay: Redox couple / cyclic voltammetry in aqueous 1 M H2SO4
Assay type: physicochemical
Description: More preferably, a solution of mercaptoethanesulfonate is allowed to react with a suspension of benzoquinone in water (Scheme 16). 0.655 g of sodium mercaptoethanesulfonate in 10 ml of water with 60 microliters of acetic acid was treated with 0.438 g of benzoquinone and allowed to stir at room temperature for 45 minutes. The resulting mixture was filtered and the filtrate was extracted with three 5 ml portions of ethyl acetate. The aqueous phase was then diluted with 30 ml of ethanol and heated to clarify it. On cooling, crystals formed that gave ^1H and ^13C NMR spectra in D2O in accord with tetra-thioethylsulfonato hydroquinone, 52 (FIGS. 5A and 5B).
To 3.956 g of sodium 3-mercaptopropanesulfonate dispersed in 50 mL of nitrogen-purged N-methyl pyrrolidinone were added 10.5 mL of 2 M aqueous NaOH. Once mixed, 2.766 g of 1,8-dichloroanthraquinone were added (Scheme 28). The suspension was heated under nitrogen to 90° C. for six days then allowed to cool. 50 mL of water containing 1 mL of acetic acid was added to the cooled solution, which was further diluted with 25 mL water. The solution was extracted with four 50 mL portions of methylene chloride, and the aqueous phase was evaporated. The residue was dissolved with 35 mL of water and 60 mL of methanol was added. The mixture was heated until clear, and left to slowly cool. […]

SMILES	reversible redox couple (aqueous 1 M H2SO4)	reduction potential (cyclic voltammetry in 1 M H2SO4)
O=S(=O)([O-])CCSc1c(O)c(SCCS(=O)(=O)[O-])c(SCCS(=O)(=O)[O-])c(O)c1SCCS(=O)(=O)[O-].[Na+].[Na+].[Na+].[Na+] [Compound 52, 2,3,5,6-tetrakis(ethylsulfanyl-2′-sulfonate)-1,4-hydroquinone tetrasodium salt]	0.63 V vs. NHE	–
O=C1c2cccc(SCCCS(=O)(=O)[O-])c2C(=O)c2c(SCCCS(=O)(=O)[O-])cccc21.[Na+].[Na+] [Compound 109]	–	approximately 85 mV vs. NHE
